# Results: patent publication US9328083B2, “2-aminated methylene or 2-esterified methylene tanshinone derivatives, and preparation method and application thereof” (HANGZHOU BENSHENG PHARMACEUTICAL CO., LTD., priority 2011, dated 2016)
# What was measured:
# [1] = system: RPMI8226 (multiple myeloma); test: MTT growth inhibition of multiple myeloma cells, 72 h; format: cell-based, human; settings: Homo sapiens, RPMI 8226, 72 h; for IC50: read-out: IC50; for IC90: read-out: IC90
# Outline: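 Viability read by MTT after 72 h at 37° C, 5% CO2: compounds from a 10 mg/mL DMSO stock were diluted in medium and added at several concentrations to 6000 RPMI8226 cells per well in 1640 medium plus 10% FBS.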
# [2] = system: U87 MG (malignant glioma cell); test: MTT growth inhibition of human solid tumor cells, 72 h; format: cell-based; settings: Homo sapiens, U-87 MG, U87-MG, 72 h; for IC50: read-out: IC50; for IC90: read-out: IC90
# Outline: (§1)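 Viability was read by MTT after 72 h of compound exposure at 37°C, 5% CO2, in cells seeded at 4000 per well and pre-grown for 24 h in DMEM high glucose plus 10% FBS. Test solutions came from a 10 mg/mL DMSO stock diluted in medium.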
# [3] = system: Hep G2 (human liver cancer cell); test: as above; format: cell-based; settings: Homo sapiens, HepG2, Hep G2, 72 h; for IC50: read-out: IC50; for IC90: read-out: IC90
# Outline: as §1
# [4] = system: PANC-1 (pancreatic cancer); test: as above; format: cell-based; settings: Homo sapiens, PANC-1, 72 h; for IC50: read-out: IC50; for IC90: read-out: IC90
# Outline: as §1
# PC-3 (prostate cancer) = test: as above; format: cell-based; settings: Homo sapiens, PC-3, 72 h; for IC50: read-out: IC50; for IC90: read-out: IC90
# Outline: as §1
# MG63 (osteosarcoma) = test: as above; format: cell-based; settings: Homo sapiens, MG-63, 72 h; for IC50: read-out: IC50; for IC90: read-out: IC90
# Outline: as §1
# [5] = system: CNE (nasopharyngeal carcinoma cell); test: as above; format: cell-based; settings: Homo sapiens; for IC50: read-out: IC50; for IC90: read-out: IC90
# Outline: as §1
# [6] = system: RKO (human colon adenocarcinoma cell); test: as above; format: cell-based; settings: Homo sapiens; for IC50: read-out: IC50; for IC90: read-out: IC90
# Outline: as §1
# [7] = system: CaES-17 (esophageal cancer cell); test: as above; format: cell-based; settings: Homo sapiens, CaEs17, CaEs-17, 72 h; for IC50: read-out: IC50; for IC90: read-out: IC90
# Outline: as §1
# [8] = system: SK-OV-3 (ovarian cancer cell); test: as above; format: cell-based; settings: Homo sapiens, SK-OV-3, 72 h; for IC50: read-out: IC50; for IC90: read-out: IC90
# Outline: as §1
# [9] = system: Hep-2 (laryngeal carcinoma); test: as above; format: cell-based; settings: Homo sapiens, HEp-2, 72 h; for IC50: read-out: IC50; for IC90: read-out: IC90
# Outline: as §1
# [10] = system: Becap37 (human breast cancer cell); test: as above; format: cell-based; settings: Homo sapiens, Becap-37, 72 h; for IC50: read-out: IC50; for IC90: read-out: IC90
# Outline: as §1
# [11] = system: Hela (human cervical cancer cell); test: as above; format: cell-based; settings: Homo sapiens, HeLa, 72 h; for IC50: read-out: IC50; for IC90: read-out: IC90
# Outline: as §1
# A549 (human lung cancer) = test: as above; format: cell-based; settings: Homo sapiens, A549, 72 h; for IC50: read-out: IC50; for IC90: read-out: IC90
# Outline: as §1
# [12] = system: MGC 803 (human gastric cancer cell); test: as above; format: cell-based; settings: Homo sapiens, MGC-803, 72 h; for IC50: read-out: IC50; for IC90: read-out: IC90
# Outline: as §1
# [13] = system: Jurkat (acute lymphoblastic leukemia, ALL); test: MTT growth inhibition of leukemia cells, 72 h; format: cell-based, human; settings: Homo sapiens, 72 h; for IC50: read-out: IC50; for IC90: read-out: IC90
# Outline: (§2)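 6000 cells/well, RPMI-1640 + 10% FBS; compounds added day 2 (DMSO stock 10 mg/mL, diluted in medium); 72 h, 37 °C, 5% CO2; MTT read-out of viable cells.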
# [14] = system: NB4 (acute promyelocytic leukemia, AML); test: MTT growth inhibition of leukemia cells, 72 h; format: cell-based, human; settings: Homo sapiens, NB4, 72 h; for IC50: read-out: IC50; for IC90: read-out: IC90
# Outline: as §2
# [15] = system: H9 (acute lymphoblastic leukemia, ALL); test: MTT growth inhibition of leukemia cells, 72 h; format: cell-based, human; settings: Homo sapiens, H9, 72 h; for IC50: read-out: IC50; for IC90: read-out: IC90
# Outline: as §2
# [16] = system: K562/adr (drug-resistant, chronic myeloid leukemia, CML); test: MTT growth inhibition of leukemia cells, 72 h; format: cell-based, human; settings: Homo sapiens, K562/Adr; for IC50: read-out: IC50; for IC90: read-out: IC90
# Outline: as §2
# [17] = system: Kasumi-1 (acute myeloid leukemia M2 type, AML-M2); test: MTT growth inhibition of leukemia cells, 72 h; format: cell-based, human; settings: Homo sapiens, Kasumi-1, 72 h; for IC50: read-out: IC50; for IC90: read-out: IC90
# Outline: as §2
IC50 [1] [µg/mL],IC90 [1] [µg/mL],IC50 [2] [µg/mL],IC90 [2] [µg/mL],IC50 [3] [µg/mL],IC90 [3] [µg/mL],IC50 [4] [µg/mL],IC90 [4] [µg/mL],IC50 (PC-3 (prostate cancer)) [µg/mL],IC90 (PC-3 (prostate cancer)) [µg/mL],IC50 (MG63 (osteosarcoma)) [µg/mL],IC90 (MG63 (osteosarcoma)) [µg/mL],IC50 [5] [µg/mL],IC90 [5] [µg/mL],IC50 [6] [µg/mL],IC90 [6] [µg/mL],IC50 [7] [µg/mL],IC90 [7] [µg/mL],IC50 [8] [µg/mL],IC90 [8] [µg/mL],Structure (SMILES),further results
6.16,16,6.5,> 16,13.5,> 16,1.57,16.7,10.3,24.5,4.76,> 16,11.8,> 16,3.42,> 16,≥ 19.3,> 16,> 16,> 16,Cc1c(CNCC2CCCCC2)oc2c1C(=O)C(=O)c1c-2ccc2c(C)cccc12 [BS-TA-B06],IC50 [9]: 9.23 µg/mL; IC90 [9]: > 16 µg/mL; IC50 [10]: 5.9 µg/mL; IC90 [10]: > 16 µg/mL; IC50 [11]: 7.49 µg/mL; IC90 [11]: > 16 µg/mL; IC50 (A549 (human lung cancer)): 1.59 µg/mL; IC90 (A549 (human lung cancer)): 10 µg/mL; IC50 [12]: 7.82 µg/mL; IC90 [12]: > 16 µg/mL; IC50 [13]: 5.25 µg/mL; IC90 [13]: 16 µg/mL; IC50 [14]: 2.13 µg/mL; IC90 [14]: 7.29 µg/mL; IC50 [15]: 3.2 µg/mL; IC90 [15]: 14.1 µg/mL; IC50 [16]: 0.81 µg/mL; IC90 [16]: 1.8 µg/mL; IC50 [17]: 0.57 µg/mL; IC90 [17]: 1.73 µg/mL
3.46,10.2,10.1,21.2,8.46,> 16,1.33,8.21,7.05,16,8.14,> 16,9,> 16,0.93,17,9.16,19.7,> 16,> 16,Cc1c(CNCC2CC2)oc2c1C(=O)C(=O)c1c-2ccc2c(C)cccc12 [BS-TA-B07],IC50 [9]: 9.45 µg/mL; IC90 [9]: > 16 µg/mL; IC50 [10]: 5.23 µg/mL; IC90 [10]: 14.3 µg/mL; IC50 [11]: 6.86 µg/mL; IC90 [11]: 18.5 µg/mL; IC50 (A549 (human lung cancer)): 5.98 µg/mL; IC90 (A549 (human lung cancer)): 21.9 µg/mL; IC50 [12]: 6.9 µg/mL; IC90 [12]: 17.1 µg/mL; IC50 [13]: 3.11 µg/mL; IC90 [13]: 9.52 µg/mL; IC50 [14]: 1.35 µg/mL; IC90 [14]: 3.74 µg/mL; IC50 [15]: 2.9 µg/mL; IC90 [15]: 7.5 µg/mL; IC50 [16]: 3.22 µg/mL; IC90 [16]: 6.38 µg/mL; IC50 [17]: 1.07 µg/mL; IC90 [17]: 3.86 µg/mL
15.8,> 16,> 16,> 16,> 16,> 16,0.88,5.82,> 16,> 16,> 16,> 16,> 16,> 16,5.47,> 16,> 16,> 16,> 16,> 16,CCCCNCc1oc2c(c1C)C(=O)C(=O)c1c-2ccc2c(C)cccc12 [BS-TA-B10],IC50 [9]: 15.8 µg/mL; IC90 [9]: > 16 µg/mL; IC50 [10]: > 16 µg/mL; IC90 [10]: > 16 µg/mL; IC50 [11]: 15.6 µg/mL; IC90 [11]: > 16 µg/mL; IC50 (A549 (human lung cancer)): 1.28 µg/mL; IC90 (A549 (human lung cancer)): 6 µg/mL; IC50 [12]: > 16 µg/mL; IC90 [12]: > 16 µg/mL; IC50 [13]: > 16 µg/mL; IC90 [13]: > 16 µg/mL; IC50 [14]: 5.79 µg/mL; IC90 [14]: 15.4 µg/mL; IC50 [15]: 6 µg/mL; IC90 [15]: > 16 µg/mL; IC50 [16]: 0.76 µg/mL; IC90 [16]: 1.8 µg/mL; IC50 [17]: 0.4 µg/mL; IC90 [17]: 0.92 µg/mL
